The target in data set [1] is T1, Perforin-1 (Homo sapiens) (UniProt P14222).
T1 sequence (whole entry): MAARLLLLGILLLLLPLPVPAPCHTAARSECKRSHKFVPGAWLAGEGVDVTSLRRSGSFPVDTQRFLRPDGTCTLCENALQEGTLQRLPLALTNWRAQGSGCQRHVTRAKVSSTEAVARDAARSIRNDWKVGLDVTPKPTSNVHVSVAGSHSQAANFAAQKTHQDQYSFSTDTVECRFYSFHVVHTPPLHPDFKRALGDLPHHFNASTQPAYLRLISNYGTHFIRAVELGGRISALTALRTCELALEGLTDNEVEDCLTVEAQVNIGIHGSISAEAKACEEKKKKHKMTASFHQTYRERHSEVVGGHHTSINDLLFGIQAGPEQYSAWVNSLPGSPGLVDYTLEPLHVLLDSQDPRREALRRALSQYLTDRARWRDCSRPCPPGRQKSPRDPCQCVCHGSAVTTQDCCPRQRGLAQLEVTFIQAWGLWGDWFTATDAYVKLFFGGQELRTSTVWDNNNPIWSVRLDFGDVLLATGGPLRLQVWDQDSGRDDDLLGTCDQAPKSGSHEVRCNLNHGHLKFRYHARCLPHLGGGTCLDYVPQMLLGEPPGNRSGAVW
Description: Inhibition of perforin-dependent cell killing activity of human KHYG-1 cells assessed as reduction in cytotoxicity against K562 cells preincubated for 20 mins followed by 51Cr labelled K562 cells addition and measured after 4 hrs by gamma counter analysis. The format is cell-based. The settings on record: time 260.0 min.

The nature of data set [2]: Cytotoxicity against human KHYG-1 cells assessed as cell viability at 1 uM measured after 24 hrs by trypan blue staining based analysis relative to control. The following applies: read-out: Activity. In kind it is toxicity.
Data set [3] in a line: Cytotoxicity against human KHYG-1 cells assessed as cell viability at 0.24 uM measured after 24 hrs by trypan blue staining based analysis relative to control. The format is toxicity. The settings on record: read-out: Activity.
Data set [4] concerns the target T1, Perforin-1 (Homo sapiens). Description: Inhibition of perforin-dependent cell killing activity of human KHYG-1 cells assessed as reduction in cytotoxicity against K562 cells at 100 uM preincubated for 20 mins followed by 51Cr labelled K562 cells addition and measured after 4 hrs by gamma counter analysis relative to control. In kind it is cell-based. The settings on record: time 260.0 min.

In another data set the test system is HepG2. Put plainly: Cytotoxicity against human HepG2 cells assessed as reduction in cell viability at 0.001 to 100 uM incubated for 5 days by SRB assay. In kind it is toxicity, cell-based. The settings on record: hepg2, 120 h, dose 0.001-100 µM, time 5 day. Background: Sulforhodamine B stains cellular protein and so reports cell mass.
The target of data set [5] is T2, Perforin-1 (Mus musculus) (UniProt P10820).
T2 sequence (whole entry): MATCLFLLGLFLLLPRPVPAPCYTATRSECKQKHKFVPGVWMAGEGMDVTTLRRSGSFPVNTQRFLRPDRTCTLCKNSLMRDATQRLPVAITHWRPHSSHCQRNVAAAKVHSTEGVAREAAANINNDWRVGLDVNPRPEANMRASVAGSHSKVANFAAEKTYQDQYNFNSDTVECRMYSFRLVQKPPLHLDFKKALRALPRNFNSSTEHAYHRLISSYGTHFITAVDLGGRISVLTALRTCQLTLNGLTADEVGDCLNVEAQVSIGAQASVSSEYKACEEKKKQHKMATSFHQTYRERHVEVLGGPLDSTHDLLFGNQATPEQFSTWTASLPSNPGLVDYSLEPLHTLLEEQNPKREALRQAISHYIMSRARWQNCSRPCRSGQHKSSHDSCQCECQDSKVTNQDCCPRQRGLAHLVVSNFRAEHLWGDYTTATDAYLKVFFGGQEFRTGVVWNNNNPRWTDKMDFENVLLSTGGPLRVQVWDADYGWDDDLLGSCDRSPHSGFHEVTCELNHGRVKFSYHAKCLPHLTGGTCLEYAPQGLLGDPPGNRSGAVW
Put plainly: Binding affinity to recombinant mouse perforin expressed in baculovirus-infected Sf21 cells assessed as change in chemical shift by 19F NMR assay.

For data set [6], the target named is T3, Perforin-1 (Mus musculus, UniProt P10820).
T3 sequence (P10820 whole entry): T2 sequence (whole entry)
Put plainly: Binding affinity to lipid-coated L1 chip immobilised recombinant mouse perforin expressed in baculovirus-infected Sf21 cells by SPR analysis. (SPR reads the build-up and loss of mass on a sensor chip optically.)

Data set [7] has as its target T3, Perforin-1. Description: Binding affinity to CM5 chip immobilised recombinant mouse perforin expressed in baculovirus-infected Sf21 cells by SPR analysis.
Data set [8] is described as follows: Cytotoxicity against human KHYG-1 cells assessed as cell viability at 0.38 uM measured after 24 hrs by trypan blue staining based analysis relative to control. In kind it is toxicity. The settings on record: read-out: Activity.

Some results are limits rather than exact numbers.

For `Cc1ccc(S(=O)(=O)c2ccc3[nH]ccc3c2)cc1-c1cnc(N)nc1`, in data set [1], the IC90 (in general, the concentration at which the effect reaches the 90% level) is 496 nM. In addition, the viability at 24 h, 1 µM in data set [2] is over 85%.

With `Cc1cc(NS(=O)(=O)c2ccc(C)c(-c3cnc(N)nc3)c2)ccc1N`, the concentration for an effect of 90% (IC90) in [1] was 2290 nM. Further, in [2], the viability at 24 h, 1 µM was over 85%.

Turning to `Cc1cc(C(N)=O)cc(S(=O)(=O)c2ccc(C)c(-c3cnc(N)nc3)c2)c1`, in data set [1], the IC90 turned out to be 29 nM. For the same compound, the viability at 24 h, 0.24 µM in data set [3] is 64%.

`Nc1ccc(S(=O)(=O)c2ccc(N)cc2)cc1` [DAPSONE]: in [1], the IC90 is over 100000 nM. In data set [4], the inhibition (as a rule, the share of the control response that was lost under treatment) is 65%. Moreover, the Activity entry in the data set on HepG2 is recorded as “Non-Toxic”.

As to `Cc1ccc(S(=O)(=O)c2ccc3c(c2)CCO3)cc1-c1cnc(N)nc1`, the IC90 in [1] turned out to be 160 nM. The viability at 24 h, 1 µM in data set [2] was over 85%.

Turning to `Nc1ccc(S(=O)(=O)c2cccc(-c3cnc(N)nc3)c2)c(C(F)(F)F)c1`, the concentration for an effect of 90% (IC90) in data set [1] came out at 131 nM. Further, in data set [5], the Activity stood at 8.5 Hz.

On to `Cc1cc(C(=O)Nc2ccc(C)c(-c3cnc(N)nc3)c2)ccc1N`, for which the concentration for an effect of 90% (IC90) in data set [1] was over 30000 nM. In addition, the viability at 24 h, 1 µM in [2] was over 85%.

On to `Cc1ccc(NS(=O)(=O)c2ccc3c(c2)CCN3)cc1-c1cnc(N)nc1`, for which the concentration for an effect of 90% (IC90) in data set [1] worked out at 33 nM. Further, in data set [2], the viability at 24 h, 1 µM was over 85%.

Regarding `Cc1ccc(S(=O)(=O)c2ccc3c(c2)CCN3)cc1-c1cnc(N)nc1`, the IC90 in [1] stood at 30 nM. Further, the dissociation constant (Kd) (commonly the free concentration of one partner at which half of the binding sites on the other are occupied at equilibrium, for simple one-to-one binding) was about 200 nM at Perforin-1 [6] and 85000 nM on Perforin-1 [7]. Also, in the data set on HepG2, the Activity entry was “Non-Toxic”. In addition, in data set [2], the viability at 24 h, 1 µM was over 85%.

As to `CNC(=O)Nc1ccc(-c2cc(S(=O)(=O)c3ccc4c(c3)CCN4)ccc2C)cc1`, the IC90 in data set [1] worked out at 4460 nM. The viability at 24 h, 1 µM in [2] was over 85%.

Take `Cc1ccc(S(=O)(=O)c2ccc3[nH]ncc3c2)cc1-c1cnc(N)nc1`: in [1], the 90% effect concentration (IC90) was 281 nM. Also, the viability at 24 h, 1 µM in data set [2] is over 85%.

On to `Cc1ccc(S(=O)(=O)c2ccc3c(c2)CCN3)cc1-c1ccc2n[nH]cc2c1`, for which, in data set [1], the IC90 was found to be 1040 nM. For the same compound, the viability at 24 h, 1 µM in data set [2] was over 85%.

Take `Cc1ccc(S(=O)(=O)c2ccc(N)cc2)cc1-c1cccnc1`: in [1], the IC90 is 43000 nM.

As for `Cc1cc(S(=O)(=O)c2ccc(C)c(-c3cnc(N)nc3)c2)c(C(F)(F)F)cc1N`, the 90% effect concentration (IC90) in data set [1] stood at 203 nM. The Activity in [5] came out at 7.6 Hz.

On to `Cc1cc(NC(=O)c2ccc(C)c(-c3cnc(N)nc3)c2)ccc1N`, for which the concentration for an effect of 90% (IC90) in [1] was over 30000 nM. In addition, in data set [2], the viability at 24 h, 1 µM was over 85%.

`Cc1cc(S(=O)(=O)Nc2ccc(C)c(-c3cnc(N)nc3)c2)ccc1N`: the IC90 in data set [1] was determined as 70 nM. The viability at 24 h, 1 µM in [2] was over 85%.

Regarding `Cc1ccc(S(=O)(=O)c2ccc3c(c2)CCN3C)cc1-c1cnc(N)nc1`, the IC90 in data set [1] turned out to be 406 nM. The viability at 24 h, 1 µM in data set [2] is over 85%.

In the case of `CCNc1ccc(S(=O)(=O)c2ccc(C)c(-c3cnc(N)nc3)c2)c(C(F)(F)F)c1`, in [1], the IC90 is 31 nM. In addition, the Activity in data set [5] came out at 14.5 Hz.

For `Cc1ccc(S(=O)(=O)c2ccc(N)cc2C(F)(F)F)cc1-c1cnc(N)nc1`, the concentration for an effect of 90% (IC90) in [1] came out at 21 nM. Besides, the Activity in data set [5] is 13.2 Hz.

In the case of `Cc1cc(S(=O)(=O)c2ccc(C)c(-c3cnc(N)nc3)c2)ccc1C(N)=O`, the concentration for an effect of 90% (IC90) in data set [1] was determined as 155 nM. Besides, the viability at 24 h, 1 µM in [2] is over 85%.

As to `Cc1ccc(NS(=O)(=O)c2ccc(N)cc2C(F)(F)F)cc1-c1cnc(N)nc1`, the IC90 in data set [1] is 1900 nM. Besides, in data set [5], the Activity was 5.5 Hz.

With `Cc1cc2c(cc1-c1cnc(N)nc1)S(=O)(=O)c1ccc(C(N)=O)cc1CC2C` (stereo not drawn), in [1], the concentration for an effect of 90% (IC90) stood at 40 nM. For the same compound, the viability at 24 h, 1 µM in data set [2] turned out to be 76%.

As for `Cc1ccc(S(=O)(=O)c2ccc3c(c2)CCN3)cc1-c1ccc(N)nc1`, the IC90 in [1] came out at 361 nM. For the same compound, the viability at 24 h, 1 µM in data set [2] was over 85%.

`Cc1cc(S(=O)(=O)c2ccc3c(c2)CCN3)ccc1-c1cnc(N)nc1`: the IC90 in [1] was over 3000 nM. For the same compound, the viability at 24 h, 1 µM in data set [2] is over 85%.

With `Cc1cc(S(=O)(=O)c2ccc(C)c(-c3cnc(N)nc3)c2)ccc1N`, the IC90 in [1] was found to be 169 nM. Further, the Kd on Perforin-1 [6] is about 200 nM; on Perforin-1 [7] it was 110000 nM. The viability at 24 h, 1 µM in data set [2] is over 85%.

Consider `Cc1ccc(S(=O)(=O)c2ccc(N)cc2)cc1-c1cnc(N)nc1`, for which the IC90 in data set [1] was found to be 3400 nM.

Take `Cc1ccc(S(=O)(=O)c2ccc3c(c2)CNC3=O)cc1-c1cnc(N)nc1`: the IC90 in [1] was found to be 199 nM. The viability at 24 h, 1 µM in data set [2] is over 85%.

Take `Cc1ccc(S(=O)(=O)c2ccc3c(c2)CCN3)cc1-c1cnc2n[nH]cc2c1`: the IC90 in data set [1] came to 40 nM. In addition, in [8], the viability at 24 h, 0.38 µM was found to be 97%. The viability at 24 h, 1 µM in data set [2] was found to be 56%.

Regarding `Cc1ccc(S(=O)(=O)c2ccc3c(c2)CCNC3=O)cc1-c1cnc(N)nc1`, the concentration for an effect of 90% (IC90) in [1] was 40 nM. In addition, the viability at 24 h, 1 µM in data set [2] was over 85%.
